In brackets after ≈: the same amount, converted by molar mass. Activity calls are given as the source filed them. The calls are words filed in the database; no cut-off is given here.
What was measured:
[1] = biological target: T1, Poly [ADP-ribose] polymerase tankyrase-2 (Homo sapiens, UniProt Q9H2K2); assay: Inhibition of recombinant human N-terminal TEV cleavage site-fused/FLAG-poly his-tagged TNKS2 ARC5-SAM-PARP domain (613 to 1166 residues) expressed in Escherichia coli assessed as reduction in auto-PARylation preincubated for 10 mins followed by biotinylated-NAD+ addition and measured after 45 mins by ELISA
T1 sequence (Q9H2K2 whole entry): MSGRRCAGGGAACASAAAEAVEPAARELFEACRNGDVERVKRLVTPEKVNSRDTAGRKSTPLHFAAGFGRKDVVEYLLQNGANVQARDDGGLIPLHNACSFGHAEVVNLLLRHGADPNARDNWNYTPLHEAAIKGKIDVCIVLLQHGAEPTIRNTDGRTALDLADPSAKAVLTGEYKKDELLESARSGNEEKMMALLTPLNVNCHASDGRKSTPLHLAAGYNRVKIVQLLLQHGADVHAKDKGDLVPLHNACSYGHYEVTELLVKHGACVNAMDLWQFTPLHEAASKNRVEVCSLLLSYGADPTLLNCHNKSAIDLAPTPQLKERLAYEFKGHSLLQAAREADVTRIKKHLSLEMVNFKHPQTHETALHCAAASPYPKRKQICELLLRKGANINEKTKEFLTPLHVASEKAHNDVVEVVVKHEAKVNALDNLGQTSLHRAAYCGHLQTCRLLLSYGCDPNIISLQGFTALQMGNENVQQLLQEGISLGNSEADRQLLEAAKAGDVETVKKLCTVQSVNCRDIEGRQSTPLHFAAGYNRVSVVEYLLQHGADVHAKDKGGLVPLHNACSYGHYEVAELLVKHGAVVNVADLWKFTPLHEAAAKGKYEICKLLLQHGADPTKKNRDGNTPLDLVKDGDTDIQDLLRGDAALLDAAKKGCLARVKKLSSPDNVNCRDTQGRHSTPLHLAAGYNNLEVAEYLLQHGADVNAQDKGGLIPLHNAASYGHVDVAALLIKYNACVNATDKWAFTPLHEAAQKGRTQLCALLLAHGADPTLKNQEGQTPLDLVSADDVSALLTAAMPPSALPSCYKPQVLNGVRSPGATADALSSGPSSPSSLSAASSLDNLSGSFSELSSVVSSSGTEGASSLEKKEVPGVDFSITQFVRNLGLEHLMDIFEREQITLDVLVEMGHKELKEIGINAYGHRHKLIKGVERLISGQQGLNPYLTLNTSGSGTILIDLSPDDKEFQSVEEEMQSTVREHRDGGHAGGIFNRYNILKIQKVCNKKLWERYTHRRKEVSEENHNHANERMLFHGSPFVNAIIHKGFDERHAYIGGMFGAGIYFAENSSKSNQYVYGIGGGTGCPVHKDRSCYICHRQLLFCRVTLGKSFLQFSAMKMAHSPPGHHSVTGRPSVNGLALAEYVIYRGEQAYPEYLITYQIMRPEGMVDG

COLO 320DM [2] = assay: Antiproliferative activity against human COLO320DM cells assessed as inhibition of cell growth measured after 4 days by CellTiter-Glo assay; type: functional; details: 96 h
[3] = Permeability of the compound measured after 4 hrs by PAMPA; type: ADME; details: read-out: permeability
[4] = Stability in mouse liver microsomes assessed as parent compound remaining at 1 uM measured after 30 mins in presence of NADPH by LC-MS/MS analysis; type: ADME, Microsome; details: read-out: Stability
[5] = Stability in mouse liver microsomes assessed as parent compound remaining at 1 uM measured after 60 mins in presence of NADPH by LC-MS/MS analysis; type: ADME, Microsome; details: read-out: Stability
[6] = Stability in rat liver microsomes assessed as parent compound remaining at 1 uM measured after 30 mins in presence of NADPH by LC-MS/MS analysis; type: ADME, Microsome; details: read-out: Stability
[7] = Stability in rat liver microsomes assessed as parent compound remaining at 1 uM measured after 60 mins in presence of NADPH by LC-MS/MS analysis; type: ADME, Microsome; details: read-out: Stability
[8] = Stability in human liver microsomes assessed as parent compound remaining at 1 uM measured after 30 mins in presence of NADPH by LC-MS/MS analysis; type: ADME, Microsome; details: read-out: Stability
[9] = Stability in human liver microsomes assessed as parent compound remaining at 1 uM measured after 60 mins in presence of NADPH by LC-MS/MS analysis; type: ADME, Microsome; details: read-out: Stability
[10] = Protein binding in human plasma assessed as unbound fraction at 1 uM measured after 24 hrs by LC-MS/MS analysis; type: ADME, cell-free
[11] = Protein binding in mouse plasma assessed as unbound fraction at 1 uM measured after 24 hrs by LC-MS/MS analysis; type: ADME, cell-free
MDR1 = assay: Efflux ratio of permeability across basolateral to apical side over apical to basolateral side in MDCK2-MDR1 cells; type: ADME, cell-based, Canis lupus familiaris; details: dog, MDCK-MDR1
[12] = Efflux ratio of permeability across basolateral to apical side over apical to basolateral side in MDCK2 cells; type: ADME, cell-based, Canis lupus familiaris, MDCK-II; details: dog, mdck
[13] = Net efflux ratio of permeability across basolateral to apical side over apical to basolateral side in MDCK2-MDR1 cells to MDCK2 cells; type: ADME, cell-based, Canis lupus familiaris; details: dog, mdck
[14] = biological target: T2, Poly [ADP-ribose] polymerase tankyrase-1 (Homo sapiens, UniProt O95271)
T2 sequence (O95271 whole entry): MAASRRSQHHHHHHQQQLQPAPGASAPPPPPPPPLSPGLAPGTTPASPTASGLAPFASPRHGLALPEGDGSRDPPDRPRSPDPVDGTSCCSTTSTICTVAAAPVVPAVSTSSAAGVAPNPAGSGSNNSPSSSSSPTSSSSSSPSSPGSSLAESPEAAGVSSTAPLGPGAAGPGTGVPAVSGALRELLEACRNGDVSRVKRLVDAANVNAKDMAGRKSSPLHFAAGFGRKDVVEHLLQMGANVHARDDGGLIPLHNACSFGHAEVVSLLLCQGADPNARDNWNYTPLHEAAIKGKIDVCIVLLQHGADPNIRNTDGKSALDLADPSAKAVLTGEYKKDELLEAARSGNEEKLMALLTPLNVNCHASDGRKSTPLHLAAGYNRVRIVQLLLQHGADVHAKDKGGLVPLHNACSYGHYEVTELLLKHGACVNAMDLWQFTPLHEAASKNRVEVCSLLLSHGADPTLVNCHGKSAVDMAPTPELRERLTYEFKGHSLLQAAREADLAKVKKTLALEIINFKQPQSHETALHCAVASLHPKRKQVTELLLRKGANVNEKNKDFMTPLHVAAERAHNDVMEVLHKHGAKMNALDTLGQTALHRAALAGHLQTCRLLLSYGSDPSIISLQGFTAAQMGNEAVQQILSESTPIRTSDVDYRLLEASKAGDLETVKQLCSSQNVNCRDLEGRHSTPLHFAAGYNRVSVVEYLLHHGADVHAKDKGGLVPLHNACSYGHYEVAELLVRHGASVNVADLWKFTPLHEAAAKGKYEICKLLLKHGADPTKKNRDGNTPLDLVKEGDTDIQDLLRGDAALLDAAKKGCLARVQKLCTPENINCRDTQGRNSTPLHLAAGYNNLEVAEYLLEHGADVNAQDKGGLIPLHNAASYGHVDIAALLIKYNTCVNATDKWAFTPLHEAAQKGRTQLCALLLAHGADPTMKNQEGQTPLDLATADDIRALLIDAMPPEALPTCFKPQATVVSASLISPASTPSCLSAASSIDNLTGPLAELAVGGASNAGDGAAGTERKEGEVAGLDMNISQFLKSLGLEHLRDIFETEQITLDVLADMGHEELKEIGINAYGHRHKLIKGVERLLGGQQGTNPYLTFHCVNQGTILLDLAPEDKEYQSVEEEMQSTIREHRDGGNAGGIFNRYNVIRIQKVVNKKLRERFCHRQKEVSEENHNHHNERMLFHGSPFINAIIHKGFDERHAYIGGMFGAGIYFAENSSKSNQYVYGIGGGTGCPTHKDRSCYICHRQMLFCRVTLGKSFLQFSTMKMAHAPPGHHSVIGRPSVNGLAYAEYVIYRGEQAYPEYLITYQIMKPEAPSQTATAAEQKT
Description: Inhibition of recombinant human N-terminal TEV cleavage site-fused/FLAG-poly his-tagged TNKS SAM-PARP domain (1024 to 1327 residues) expressed in Escherichia coli assessed as reduction in auto-PARylation preincubated for 10 mins followed by biotinylated-NAD+ addition and measured after 45 mins by ELISA

Tankyrase 1/2 [15] = biological target: T3, Tankyrase 1/2 (Homo sapiens, UniProt Q9H2K2+O95271); details: hek293
T3 sequence (Q9H2K2 whole entry): T1 sequence (Q9H2K2 whole entry)
T3 sequence (O95271 whole entry): T2 sequence (O95271 whole entry)
Description: Inhibition of TNKS/TNKS2 (unknown origin) expressed in HEK293 cells assessed as reduction in Wnt-signaling measured after 24 hrs by TCF-luciferase reporter gene assay

Tankyrase 1/2 [16] = biological target: T3, Tankyrase 1/2
Description: Inhibition of TNKS/TNKS2 (unknown origin) expressed in human DLD1 cells assessed as reduction in Wnt-signaling measured after 24 hrs by TCF-luciferase reporter gene assay

physchem = details: phosphate buffered saline, pH 7.4
COLO 320DM [17] = assay: Antiproliferative activity against human COLO320DM cells assessed inhibition of cell growth measured after 5 days by MTT assay; type: functional; details: 120 h
RKO = assay: Antiproliferative activity against human RKO cells assessed inhibition of cell growth measured after 5 days by MTT assay; type: functional; details: 120 h
[18] = Dose normalized initial plasma concentration in Sprague-Dawley rat at 1 mg/kg, iv; type: ADME, organism-based; details: in vivo
[19] = Dose normalized AUC (infinity) in Sprague-Dawley rat at 1 mg/kg, iv; type: ADME, organism-based; details: in vivo
[20] = biological target: T4, Tankyrase 1/2 (Homo sapiens) (UniProt Q9H2K2+O95271); assay: Inhibition of TNKS/TNKS2-mediated WNT/beta-catenin signaling pathway in human COLO320DM cells assessed as upregulation of AXIN2 expression at 0.33 uM measured after 16 hrs by Western blot analysis; type: cell-based
[21] = biological target: T4, Tankyrase 1/2 (Homo sapiens); assay: Inhibition of TNKS/TNKS2-mediated WNT/beta-catenin signaling pathway in human COLO320DM cells assessed as reduction in beta-catenin expression at 0.33 uM measured after 16 hrs by Western blot analysis; type: cell-based
[22] = biological target: Poly [ADP-ribose] polymerase 1 (Homo sapiens, UniProt P09874); assay: Inhibition of recombinant human PARP1 expressed in Escherichia coli assessed as reduction in auto-PARylation using histone as substrate measured after 45 mins in presence of biotinylated-NAD+ by ELISA
[23] = biological target: T4, Tankyrase 1/2 (Homo sapiens); assay: Inhibition of TNKS/TNKS2-mediated WNT/beta-catenin signaling pathway in human COLO320DM cells assessed as upregulation of AXIN2 expression at 0.1 uM measured after 16 hrs by Western blot analysis relative to control; type: cell-based
COLO 320DM [24] = assay: Antitumor activity against human COLO320DM cells xenografted in Prkdc-NOD-SCID CB17 mouse assessed as tumor growth inhibition at 150 mg/kg, ip administered twice daily for 5 days followed by 2 days interval for 2 cycles relative to control; type: functional; details: read-out: TGI
COLO 320DM [25] = assay: Antitumor activity against human COLO320DM cells xenografted in Prkdc-NOD-SCID CB17 mouse assessed as tumor growth inhibition at 300 mg/kg, po administered twice daily for 5 days followed by 2 days interval for 2 cycles relative to control; type: functional; details: read-out: TGI

Poly [ADP-ribose] polymerase 1, sequence (P09874 whole entry): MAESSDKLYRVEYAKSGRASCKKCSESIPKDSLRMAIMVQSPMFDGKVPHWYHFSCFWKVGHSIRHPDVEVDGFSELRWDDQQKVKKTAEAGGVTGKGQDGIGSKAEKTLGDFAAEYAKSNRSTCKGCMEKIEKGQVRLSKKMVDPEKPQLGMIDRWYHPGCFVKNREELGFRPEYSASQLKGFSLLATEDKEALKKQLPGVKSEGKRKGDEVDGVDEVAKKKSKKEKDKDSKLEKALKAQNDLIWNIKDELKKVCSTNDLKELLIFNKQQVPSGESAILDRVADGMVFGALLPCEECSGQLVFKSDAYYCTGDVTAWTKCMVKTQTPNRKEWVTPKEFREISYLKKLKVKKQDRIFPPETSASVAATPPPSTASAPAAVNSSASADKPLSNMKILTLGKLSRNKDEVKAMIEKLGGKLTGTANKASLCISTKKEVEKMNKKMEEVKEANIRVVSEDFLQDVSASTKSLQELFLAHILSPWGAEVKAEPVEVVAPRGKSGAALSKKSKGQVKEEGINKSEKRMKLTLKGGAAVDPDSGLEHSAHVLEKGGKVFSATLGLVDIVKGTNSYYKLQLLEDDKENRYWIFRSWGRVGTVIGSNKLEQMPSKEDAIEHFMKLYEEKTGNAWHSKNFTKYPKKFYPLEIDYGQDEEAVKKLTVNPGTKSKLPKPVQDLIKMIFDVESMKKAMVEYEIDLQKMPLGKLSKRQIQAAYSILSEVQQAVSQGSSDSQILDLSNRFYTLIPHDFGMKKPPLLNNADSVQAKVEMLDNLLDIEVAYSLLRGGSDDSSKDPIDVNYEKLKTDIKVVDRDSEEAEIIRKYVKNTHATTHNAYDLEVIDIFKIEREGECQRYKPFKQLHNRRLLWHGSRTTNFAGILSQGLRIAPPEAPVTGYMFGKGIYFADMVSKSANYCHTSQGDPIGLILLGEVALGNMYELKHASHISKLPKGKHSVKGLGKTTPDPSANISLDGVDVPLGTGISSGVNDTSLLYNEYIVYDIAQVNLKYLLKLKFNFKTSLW

Compound	IC50 [1] [nM]	GI50 (COLO 320DM [2]) [nM]	Papp at 4 h [3] [×10⁻⁶ cm/s]	remaining at 1 h, 1 µM [5] [%]	remaining at 0.5 h, 1 µM [6] [%]	remaining at 1 h, 1 µM [7] [%]	remaining at 1 h, 1 µM [9] [%]	fraction unbound at 24 h, 1 µM [10]	fraction unbound at 24 h, 1 µM [11]	efflux ratio (MDR1)	efflux ratio [12]	Ratio [13]	IC50 [14] [nM]	IC50 (Tankyrase 1/2 [15]) [nM]	IC50 (Tankyrase 1/2 [16]) [nM]	solubility at 1 h, 200 µM (physchem) [µg/mL]	GI50 (COLO 320DM [17]) [nM]	GI50 (RKO) [µM]	C0/dose [18] [µmol/L]	AUC/dose [19] [µmol·h/L]	also measured
CN1CCCc2c1nc(N1CCC3(CC1)C(=O)N(CCO)c1cc(F)cc(F)c13)[nH]c2=O	13.5	250	3	2 to 8.5	2	0.5	6.3	0.022	0.083	24.6	6.4	3.8	7.5	1.1	3.9	82.9 (≈ 186 µM)					remaining at 0.5 h, 1 µM [4]: 21.2%; remaining at 0.5 h, 1 µM [8]: 21%
CS(=O)(=O)c1ccc(-c2nnc(/C=C/c3nnc(-c4ccc(C#N)cc4)o3)n2-c2ccccc2Cl)nc1		1500		95.8			100	0.028	0.035								430	8.9	1.54	0.79	
CN1CCCc2c1nc(N1CCC3(CC1)C(=O)N(C)c1cc(OCC(=O)O)cc(F)c13)[nH]c2=O	9.9	300		93.3			97.6			0.3	0.3	1	4.2	507	1877	98.4 (≈ 209 µM)					inhibition [20]: inactive; inhibition [21]: inactive
O=c1[nH]c(N2CCC3(CC2)CN(CCO)c2cc(F)cc(F)c23)nc2c1CCCC2		1630	2	3.2 to 18.3	12.8	3.2	2.2 to 5.9	0.004 to 0.015	0.004 to 0.015					12.1	77.6		450	> 10	9.84	4.42	IC50 [22]: > 100 µM; fold change (FC) [23]: 4.42; inhibition in vivo at 150 mg/kg (COLO 320DM [24]): 47.2%; inhibition in vivo at 300 mg/kg (COLO 320DM [25]): 51.9%
